Values quoted from earlier work, collected in patent publication US20140039057A1, “Compositions” (Reckitt Benckiser Healthcare (UK) Limited, priority 2008, published 2014).

Conditions: phase II and phase III clinical studies

CC(C(=O)O)c1ccc(-c2ccccc2)c(F)c1 (stereo not shown) [Flurbiprofen]
efficacy in the treatment of sore throat: efficacious
